Test: logP by HPLC on reversed-phase columns (EEC Directive 79/831 Annex V.A8)
Type: physicochemical
Settings: for log p [c]: pH 7.8; for log p [a]: pH 2.3
Procedure: The logP values were measured in accordance with EEC Directive 79/831 Annex V.A8 by HPLC (High Performance Liquid Chromatography) on reversed-phase columns (C 18) using the methods below:
[a] The determination was carried out in the acidic range at pH 2.3 using the mobile phases 0.1% aqueous phosphoric acid and acetronitrile linear gradient from 10% acetonitrile to 95% acetronitrile. [b] The LC-MS determination in the acid range was carried out at pH 2.7 using the mobile phases 0.1% aqueous formic acid and acetonitrile (contains 0.1% formic acid) linear gradient from 10% acetonitrile to 95% acetonitrile. [c] The LC-MS determination in the neutral range was carried out at pH 7.8 using the mobile phases 0.001 molar aqueous ammonium bicarbonate solution and acetonitrile linear gradient from 10% acetonitrile to 95% acetonitrile.

| Compound | log p [b] (pH 2.7) | log p [c] | other results |
| --- | --- | --- | --- |
| Clc1cnc(Nc2cccc(C3OC4CCCCC4O3)c2)nc1NC1CC1 (stereo not drawn) [Example 44] | 2.65 | 3.99 | – |
| FC(F)(F)CNc1nc(Nc2cccc(C3OCCO3)c2)ncc1Cl [Example 45] | 2.35 | 2.73 | – |
| Clc1cnc(Nc2cccc(C3OCCS3)c2)nc1NC1CC1 (stereo not drawn) [Example 46, 5-Chloro-N^4-cyclopropyl-N^2-[3-(1,3-oxathiolan-2-yl)phenyl]pyrimidine-2,4-diamine] | – | – | chromatographic logP (pH 2.7, log p [b]): 2.05; chromatographic logP (pH 2.7, logP (pH 2.7)): 2.05; chromatographic logP (pH 7.8, log p [c]): 3.26 |
| Clc1cnc(Nc2cccc(C3SCCS3)c2)nc1NC1CC1 [Example 47] | 2.42 | 3.68 | – |
| CC1(c2cccc(Nc3ncc(C(F)(F)F)c(NC4CC4)n3)c2)OCCCO1 [Example 48] | 3.29 | 3.64 | – |
| Ic1cnc(Nc2cccc(C3OCCO3)c2)nc1NC1CC1 [Example 49] | 1.75 | 3.02 | – |
| Clc1ccc(Nc2ncc(Cl)c(NC3CC3)n2)cc1C1OCCO1 [Example 50] | 2.31 | 3.28 | – |
| Fc1cnc(Nc2cccc(C3OCCCO3)c2)nc1NC1CC1 [Example 51] | 1.28[b] | 2.4 | log p [a]: 1.23 |
| FC(F)CNc1nc(Nc2cccc(C3OCCCO3)c2)ncc1Cl [Example 52] | 1.97[b] | 2.68 | log p [a]: 1.6 |
| FC(F)(F)CNc1nc(Nc2cccc(C3OCCCO3)c2)ncc1Cl [Example 53] | 2.48[b] | 2.86 | log p [a]: 2.08 |
| C#CCNc1nc(Nc2cccc(C3OCCCO3)c2)ncc1Cl [Example 54] | 1.67[b] | 2.48 | log p [a]: 1.38 |
| Cc1cnc(Nc2cccc(C3OCCCO3)c2)nc1NC1CC1 [Example 55] | 1.28[b] | 2.37 | log p [a]: 1.32 |
| COCC(C)Nc1nc(Nc2cccc(C3OCCCO3)c2)ncc1Cl (stereo not drawn) [Example 56] | 1.69[b] | 2.92 | log p [a]: 1.46 |
| Ic1cnc(Nc2cccc(C3OCCCO3)c2)nc1NC1CC1 [Example 57] | 2.23[b] | 3.18 | log p [a]: 1.6 |
| Cc1cnc(Nc2cccc(C3OCCO3)c2)nc1NC1CC1 [Example 58] | 1.21[b] | 2.25 | log p [a]: 1.21 |
| Fc1cnc(Nc2cccc(C3OCCO3)c2)nc1NC1CC1 [Example 59] | 1.60[b] | 2.28 | log p [a]: 1.14 |
| FC(F)CNc1nc(Nc2cccc(C3OCCO3)c2)ncc1Cl [Example 60] | 1.88[b] | 2.55 | log p [a]: 1.49 |
| COCC(C)Nc1nc(Nc2cccc(C3OCCO3)c2)ncc1Cl (stereo not drawn) [Example 61] | 1.62[b] | – | – |
| Clc1ccc(Nc2ncc(Cl)c(NC3CC3)n2)cc1C1OCCCO1 [Example 62] | 2.44 | 3.47 | – |
| COC(OC)c1cccc(Nc2ncc(Cl)c(NC3CC3)n2)c1 [Example 63] | 1.87 | 3.07 | – |
| CCOC(OCC)c1cccc(Nc2ncc(Cl)c(NC3CC3)n2)c1 [Example 64] | 2.58 | 3.86 | – |
| CC(C)OC(OC(C)C)c1cccc(Nc2ncc(Cl)c(NC3CC3)n2)c1 [Example 65] | – | 4.44[c]; | – |

| Compound | log p [b] (pH 2.7) | log p [c] | other results |
| --- | --- | --- | --- |
| CCCCOC(OCCCC)c1cccc(Nc2ncc(Cl)c(NC3CC3)n2)c1 [Example 66] | 4.64 | 5.83 | logP (pH 2.7) (pH 2.7): 4.64 |
| CC1(c2cccc(Nc3ncc(C(F)(F)F)c(NCC4CC4)n3)c2)OCCCO1 [Example 68] | 3.42[b] | – | – |
| CC1(c2cccc(Nc3ncc(C(F)(F)F)c(NC4CCC4)n3)c2)OCCCO1 [Example 69] | 3.81 | 4.24 | – |
| CC1(C)COC(C)(c2cccc(Nc3ncc(Cl)c(NC4CC4)n3)c2)OC1 [Example 71] | 2.99 | 4.35 | – |
| CC1COC(C)(c2cccc(Nc3ncc(C(F)(F)F)c(NC4CC4)n3)c2)O1 (stereo not drawn) [Example 72] | 3.52 | 3.94 | – |
| CC1(C)COC(C)(c2cccc(Nc3ncc(C(F)(F)F)c(NC4CC4)n3)c2)OC1 [Example 73] | 4.32 | 4.7 | – |
| CCC1(c2cccc(Nc3ncc(Cl)c(NC4CC4)n3)c2)OCC(C)O1 (stereo not drawn) [Example 74] | 2.67 | 4.1 | – |
| CC1CC1Nc1nc(Nc2cccc(C3OCCO3)c2)ncc1Cl (stereo not drawn) [Example 75] | – | 3.21[c] | – |
| CC1CC1Nc1nc(Nc2cccc(C3(C)OCCO3)c2)ncc1Cl (stereo not drawn) [Example 76] | 2.32 | 3.67 | – |
| Brc1cnc(Nc2ccc(C3OCCCO3)cc2)nc1NC1CCC1 [Example 77] | 2.2 | 3.61 | – |
| FC(F)(F)c1cnc(Nc2ccc(C3OCCCO3)cc2)nc1NC1CC1 [Example 78] | 2.72 | 3.21 | – |
| Brc1cnc(Nc2cccc(C3OCC(C4CC4)CO3)c2)nc1NC1CC1 (stereo not drawn) [Example 79] | 2.77 | 4.03 | – |
| Clc1cnc(Nc2cccc(C3OCC(C4CC4)CO3)c2)nc1NC1CCC1 (stereo not drawn) [Example 80] | 2.93 | 4.43 | – |
| C=C1COC(c2cccc(Nc3ncc(Br)c(NC4CC4)n3)c2)OC1 [Example 81] | 2.1 | 3.27 | – |
| C=C1COC(c2cccc(Nc3ncc(Br)c(NC4CCC4)n3)c2)OC1 [Example 82] | 2.43 | 3.85 | – |
| CC1COC(c2cccc(Nc3ncc(C(F)(F)F)c(NC4CC4)n3)c2)O1 (stereo not drawn) [Example 83] | 2.94[b] | 3.45 | log p [a]: 2.44 |
| CC1COC(c2cccc(Nc3ncc(Br)c(NC4CC4)n3)c2)O1 (stereo not drawn) [Example 84] | 2.03 | 3.25 | – |
| CC1COC(c2cccc(Nc3ncc(Br)c(NC4CCC4)n3)c2)O1 (stereo not drawn) [Example 85] | 2.39 | 3.84 | – |
| CC1COC(c2cccc(Nc3ncc(Cl)c(NC4CCC4)n3)c2)O1 (stereo not drawn) [Example 86] | 2.2 | 3.68 | – |
| CC1COC(c2cccc(Nc3ncc(C(F)(F)F)c(NC4CCC4)n3)c2)O1 (stereo not drawn) [Example 87] | 3.51 | 4.04 | – |
| CCC1COC(c2cccc(Nc3ncc(C(F)(F)F)c(NC4CC4)n3)c2)O1 (stereo not drawn) [Example 88] | 3.48 | 3.9 | – |
| CCC1COC(c2cccc(Nc3ncc(Br)c(NC4CCC4)n3)c2)O1 (stereo not drawn) [Example 89] | 2.88 | 4.35 | – |

| Compound | log p [b] (pH 2.7) | log p [c] | other results |
| --- | --- | --- | --- |
| CCC1COC(c2cccc(Nc3ncc(Cl)c(NC4CCC4)n3)c2)O1 (stereo not drawn) [Example 90] | 2.65 | 4.18 | – |
| C=C1COC(c2cccc(Nc3ncc(Cl)c(NC4CCC4)n3)c2)OC1 [Example 91] | – | 3.73[c] | – |
| C=C1COC(c2cccc(Nc3ncc(Cl)c(NC4CC4)n3)c2)OC1 [Example 92] | 2.01 | 3.18 | – |
| Clc1cnc(Nc2cccc(C3OCC(C4CC4)CO3)c2)nc1NC1CC1 (stereo not drawn) [Example 93] | 2.6 | 3.91 | – |
| Clc1cnc(Nc2cccc(C3OCCC(c4ccccc4)O3)c2)nc1NC1CC1 (stereo not drawn) [Example 94] | 2.83 | 4.11 | – |
| CC(C)(C)OCC1COC(c2cccc(Nc3ncc(Cl)c(NC4CC4)n3)c2)O1 (stereo not drawn) [Example 95] | 2.76 | 4.08 | – |
| CCCOCC1COC(c2cccc(Nc3ncc(Cl)c(NC4CC4)n3)c2)O1 (stereo not drawn) [Example 96] | 2.51 | 3.79 | – |
| CC1CCOC(c2cccc(Nc3ncc(Cl)c(NC4CC4)n3)c2)O1 (stereo not drawn) [Example 97] | 2 | 3.25 | – |
| CC1OC(c2cccc(Nc3ncc(Cl)c(NC4CC4)n3)c2)OC(C)C1C (stereo not drawn) [Example 98] | 2.77 | 4.21 | – |
| Clc1cnc(Nc2cccc(C3OCC(Cl)CO3)c2)nc1NC1CC1 (stereo not drawn) [Example 99] | 2.15 | 3.33 | – |
| CC1(C)CCOC(c2cccc(Nc3ncc(Cl)c(NC4CC4)n3)c2)O1 (stereo not drawn) [Example 100] | 2.22 | 3.57 | – |
| CC1COC(c2cccc(Nc3ncc(Cl)c(NC4CC4)n3)c2)OC1 (stereo not drawn) [Example 101] | 2.1 | 3.35 | – |
| CC1(C)CC(C)(C)OC(c2cccc(Nc3ncc(Cl)c(NC4CC4)n3)c2)O1 [Example 102] | 2.86 | 4.32 | – |
| Clc1cnc(Nc2cccc(C3OCC4(CCC4)CO3)c2)nc1NC1CC1 [Example 103] | 2.6 | 3.62 | – |
| COCC1COC(c2cccc(Nc3ncc(Br)c(NC4CC4)n3)c2)O1 (stereo not drawn) [Example 104] | 1.9 | 3.02 | – |
| COCC1COC(c2cccc(Nc3ncc(C(F)(F)F)c(NC4CCC4)n3)c2)O1 (stereo not drawn) [Example 106] | 3.22 | 3.77 | – |
| C=CCOCC1COC(c2cccc(Nc3ncc(Br)c(NC4CC4)n3)c2)O1 (stereo not drawn) [Example 107] | 2.43 | – | log p [a]: 2.01 |
| C=CCOCC1COC(c2cccc(Nc3ncc(C(F)(F)F)c(NC4CC4)n3)c2)O1 (stereo not drawn) [Example 108] | 3.35 | 3.79 | – |
| C=CCOCC1COC(c2cccc(Nc3ncc(C(F)(F)F)c(NC4CCC4)n3)c2)O1 (stereo not drawn) [Example 109] | 3.84 | 4.35 | – |
| Brc1cnc(Nc2cccc(C3OC4COCC4O3)c2)nc1NC1CC1 (stereo not drawn) [Example 110] | – | 2.66[c] | – |

Source: patent US20110245249A1, “Heterocyclically Substituted Anilinopyrimidines” (Bayer CropScience AG, priority 2008, published 2011)
